Results as given in patent publication US8101792B2, “Compounds isolated from Antrodia cinnamomea and use thereof” (Simpson Biotech Co., Ltd., priority 2007, dated 2012).
Read-outs that look alike come from different tables or passages of the source.

Legend:
[1] = tested on: LLC cells; conditions: cited from earlier work
[2] = Conversion of metabolites in bile samples diluted with water and incubated at 37° C.; assay type: physicochemical; conditions: bile diluted by same volume water, 37° C. bath for 12 h
Protocol: (§1) Thawed urine and bile samples (0.5 ml) dissolved in 3 volumes of acetonitrile, and then centrifuged at 8000×g for 15 min. The supernatant was passed through a 0.45 μm Millipore syringe filter (Nihon Millipore, Tokyo, Japan) for LC/MS-MS analysis. […] After treating the bile sample as described above, the amount of M1 was calculated by PAD-HPLC.

[3] = tested on: rat (RIB) or human (HIB) intestinal bacteria; assay: Metabolism of Antrodin C and metabolites by intestinal bacteria in vitro; assay type: in vitro ADME
Protocol: Mixtures of rat (RIB) or human (HIB) intestinal bacteria (5 g each) prepared as described (Xie L H, et al. 2003 Biol Pharm Bull 51: 378-384), together with Antrodin C (5 mg) dissolved in Tween 20 (0.5 ml), M1 (5 mg) dissolved in water (1.0 ml) or rat bile samples (10 ml) with metabolites M2-M4, which were collected after oral administration of Antrodin C, were added to GAM broth (50 ml), and anaerobically incubated at 37° C. for 3 d. The incubation mixture was extracted with 3 volumes of acetonitrile, and then passed through a 0.45 μm filter. […] Moreover, the metabolites (M2-M4) in bile samples, which were collected after oral administration of Antrodin C in rats, could absolutely transferred to M1 after 30 min incubation.

[4] = tested on: hepatitis model induced by LPS; assay: Hepatitis model induced by LPS; conditions: in vivo
[5] = Identification of metabolites in rat feces, bile, plasma and urine by LC/MS-MS after administration of Antrodin C; assay type: in vivo
Protocol: The metabolites in feces, bile and plasma were analyzed by LC/MS-MS. The LC/MS-MS equipment comprised a column containing TSK gel ODS-80 Ts (particle size, 5 μm; 4.6×150 mm i.d., Tosoh Co., Tokyo, Japan). Samples were eluted through the column with 0.1% AcOH and acetonitrile (35:65) at a flow rate of 1 ml/min at 30° C. The standard negative ion mode was selected under the following conditions: full scan range, 50-800 m/z; scan resolution, 13000 m/z/sec; nebulizer, 50.0 psi; dry gas, 10.0 l/min; dry temperature, 360° C. Full scanning in the region of m/z 50 to 600 assigned several peaks to Antrodin C and the metabolites in the […] when compared with those of blank samples (FIG. 3). […] Comparing to standard materials and synthesized compounds, the peak in the MS profile at m/z 328 [M-H]^− with retention time (tR)=8.2 min was derived from Antrodin C (MW 329), and M1 (m/z 331 [M-H]^−, tR=4.4 min) was dicarboxylic acid by hydrolysis of Antrodin C; M2 and M3 (m/z 345 [M-H]^−, tR=7.7 and 8.4 min), which were 14 larger than those of M1, were two kinds of monomethyl esters of M1; M4 (m/z 313 [M-H]^−, tR=21.6 min) was Antrodin A and M5 (m/z 312 [M-H]^−, tR=11.5 min) was Antrodin B. The structures of Antrodin C and its metabolites were shown in FIG. 5.

[6] = Pharmacokinetics of M1 in rat bile after P.O. and I.V. administration of Antrodin C (PAD-HPLC); conditions: for Accumulated excretion ratio: rat bile
Protocol: (§2) Male Wistar rats (9 weeks old) purchased from SLC Co. (Hamamastu, Japan), were fed with standard laboratory chow for one week, fasted overnight and given free access to water before drug administration. […] The animals were light anesthetized with diethyl ether during surgical procedures. Bile samples (n=5) was collected by cannulating a polyethylene tube (PE-10) into the rat bile duct at intervals of 0, 0.25, 0.5, 1, 2, 4, 8, 12, 24, 36 and 48 h after oral (50 mg/kg) and intravenous (10 mg/kg) administration of Antrodin C. […] The blood samples were centrifuged at 8000×g for 15 min to separate the plasma, and then all samples were stored at −20° C. for later analysis.
as §1
(§3) The concentration-time data in rat bile (n=5) were computer fitted using a program of Pharmacokineitics 3p97 edited by the Mathematics Pharmacological Committee, Chinese Pharmacological Society. The following pharmacokinetic parameters were obtained: half-time of absorption phase (t1/2 (Kα)) and half-time of elimination phase (t1/2 (Kβ)) in the bile samples after oral administration of Antrodin C at the dose of 50 mg/kg. The area under the concentration-time curve (AUC(i.v.) and AUC(p.o.)) was calculated by the statistical moment method of non-compartmental pharmacokinetic analysis. And then clearance (Clm, b) and absolute bioavailability (Fm, b) were calculated by the equations as following: Clm, b (ml/h·kg)=Dose(i.v.)/AUC(i.v.) and Fm, b (%)=AUC(p.o.)·Dose(i.v.)/[AUC(i.v.)·Dose(p.o.)]. Data were expressed mean and standard deviation (S.D.) for each group.

[7] = in vivo; conditions: male, Wistar, rat
Protocol: as §2, §1, §3

In the case of `CC(C)=CCOc1ccc(C2=C(CC(C)C)C(=O)NC2=O)cc1` [M5, Antrodin B], the “Cytotoxic activity against LLC cells” value [1] is listed as “confirmed”.

In the case of `COC(=O)/C(=C(/CC(C)C)C(=O)O)c1ccc(OCC=C(C)C)cc1` [M2, (2Z)-2-isobutyl-3-{4-[(3-methylbut-2-en-1-yl)oxy]phenyl}but-2-enedioic acid 4-methyl ester], the “Conversion in diluted bile” value [2] is reported as “thoroughly converted to M1”.

In the case of `CC(C)=CCOc1ccc(C2=C(CC(C)C)C(=O)N(O)C2=O)cc1` [Antrodin C], the “Metabolism by intestinal bacteria” value [3] is listed as “converted to M5”, the “Effect against hepatitis model induced by LPS” value [4] is listed as “protective effect” and the “Cytotoxic activity against LLC cells” value [1] is listed as “confirmed”. For the same compound, the “Metabolites found in feces” value ([5]; rat feces after administration of Antrodin C) was “M1-M3, M5 with original Antrodin C”, the “Metabolites found in plasma” value ([5]; rat plasma after administration of Antrodin C) was “M1 with another unknown peak” and the “Metabolites found in urine” value ([5]; rat urine after administration of Antrodin C) was “neither metabolite nor Antrodin C”. For the same compound, the Accumulated excretion ratio ([6]; I.V. 10 mg/kg Antrodin C) was 56.85±13.40, the Accumulated excretion ratio ([6]; P.O. 50 mg/kg Antrodin C) was 5.46±1.62% and the Main excretion pathway ([6]; rats) was “bile-feces pathway”.

For `CC(C)=CCOc1ccc(C2=C(CC(C)C)C(=O)OC2=O)cc1` [M4, Antrodin A], the “Conversion in diluted bile” value [2] was “thoroughly converted to M1”.

In the case of `CC(C)=CCOc1ccc(/C(C(=O)O)=C(\CC(C)C)C(=O)O)cc1` [M1, (2Z)-2-isobutyl-3-{4-[(3-methylbut-2-en-1-yl)oxy]-phenyl}but-2-enedioic acid], the “Metabolism by intestinal bacteria” value ([3]; GAM broth, anaerobic incubation at 37° C. for 3 d) is reported as “not metabolized”, the bioavailability [7] is reported as 19.4% and the AUC ([7]; iv, 10 mg/kg) is reported as 1680 µg·h/mL. For the same compound, the clearance ([7]; iv, 10 mg/kg) was 5.96 mL/h/kg, the AUC ([7]; po, 50 mg/kg) was 1610 µg·h/mL and the half-life ([7]; po, 50 mg/kg, t1/2 (kα), half-time of absorption phase) was 0.95 h. For the same compound, the half-life ([7]; po, 50 mg/kg, t1/2 (kβ), half-time of elimination phase) was 12.6 h.

With `COC(=O)/C(CC(C)C)=C(\C(=O)O)c1ccc(OCC=C(C)C)cc1` [M3, (2Z)-2-isobutyl-3-{4-[(3-methylbut-2-en-1-yl)oxy]phenyl}but-2-enedioic acid 1-methyl ester] the “Conversion in diluted bile” value [2] was “thoroughly converted to M1”.
